Experimental data published in US9969723B2, “3-(4-(benzyloxy)phenyl)hex-4-ynoic acid derivative, method of preparing same and pharmaceutical composition for preventing and treating metabolic disease including same as effective ingredient” (HYUNDAI PHARM CO., LTD, priority 2014, dated 2018).
Where two headings read alike, the source gives them in different places.

Columns and labels:
GPR40 = GPR40 (Homo sapiens (Human), UniProt O14842); assay: GPR40 protein activity by intracellular calcium concentration (Fluo-4, Flexstation 3) in transfected HEK-293 cells; format: cell-based; details: HEK-293 cells transfected with human GPR40, intracellular calcium
Sequence of GPR40 (O14842 whole entry): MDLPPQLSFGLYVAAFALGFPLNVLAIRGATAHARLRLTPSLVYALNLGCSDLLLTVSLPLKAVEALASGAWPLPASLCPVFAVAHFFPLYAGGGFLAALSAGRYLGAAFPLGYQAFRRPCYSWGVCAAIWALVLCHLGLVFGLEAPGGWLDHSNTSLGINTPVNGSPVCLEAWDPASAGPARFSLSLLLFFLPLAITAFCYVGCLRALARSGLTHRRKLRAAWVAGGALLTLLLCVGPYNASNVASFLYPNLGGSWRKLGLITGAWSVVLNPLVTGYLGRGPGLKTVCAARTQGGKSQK
Procedure: The GPR40 protein activity according to the novel 3-(4-(benzyloxy)phenyl)hex-4-inoic acid derivative of the present invention was measured by investigating the changes in intracellular calcium concentration affected by the GRP40 activation. First, HEK-293 cells were transfected with human GPR40 DNA (Origene, RC218370) by using Fugene HD (Promega, E2311). […] 24 hours later, the cell culture medium was replaced with Dulbecco's Modified Eagle Medium (DMEM, 50 μl/well) supplemented with 1% fetal bovine serum (FBS). To measure the calcium concentration, 50 μl of Fluo-4 reagent (Invitrogen, F10471) was added to each well, followed by culture in a 37° C. incubator for 2 hours. […] 2 hours after the culture began, those prepared samples were automatically injected to the cells by using Flexstation 3 (Molecular Devices). Then, intracellular calcium concentration was measured for 120 seconds by using SoftMax® Pro software. At this time, dimethylsulfoxide (DMSO) was injected to the cells for the non-treated group, followed by measuring the calcium concentration therein. The GPR40 protein activity was calculated by the below mathematical formula 1 with the results of calcium concentration measurement. GPR40 activity=(intracellular calcium concentration increased by the sample)/(intracellular calcium concentration of the non-treated group)×100 [Mathematical Formula 1]

[1] = system: Male OLETF (Otsuka Long-Evans Tokushima fatty) rats, the type II diabetes animal model (obesity); assay: Oral glucose tolerance test (OGTT) 3; format: in vivo, rat
Procedure: (§1) Male OLETF (Otsuka Long-Evans Tokushima fatty) rats at 29˜30 weeks, the type II diabetes animal model (obesity), were adapted at least for 7 days. Only healthy animals were selected thereafter, followed by OGTT. After fasting for 16˜18 hours, 5 rats per group were randomly selected and orally administered with the compounds prepared in Examples 5, 9, 14, 28, 37, and 47 at the dose of 1˜10 mg/kg. At this time, 5% polyethyleneglycol (PEG) was orally administered at the same dose to the non-treated group rats. 60 minutes after the sample administration, glucose (4 g/kg) was orally administered thereto at the dose of 5 ml/kg. Then, blood glucose was measured by using Accu-chek active strip (Roche diagnostic Co.). The time for the measurement was set at 60 minutes before the glucose administration (−60), 0 minute, 20 minutes, 40 minutes, 60 minutes, and 120 minutes after the glucose administration, and blood glucose was measured through tail vein puncture.

[2] = system: Male Goto-Kakizaki (GK) rats, the type II diabetes animal model (not obesity); assay: Oral glucose tolerance test (OGTT) 2; format: in vivo, rat
Procedure: as §1, with “Goto-Kakizaki (GK)” for “OLETF (Otsuka Long-Evans Tokushima fatty)”, “22˜23” for “29˜30”, “(not obesity),” for “(obesity),”, “0.3˜10” for “1˜10”

[3] = values in text, read-out: EC50, concentration promoting activation of GPR40 protein by 50%
[4] = oral dose 10 mg/kg, values in text

Compound: CC#C[C@@H](CC(=O)O)c1ccc(OCc2ccc(CN3CC=C(c4ccccc4)CC3)cc2)cc1 [Example 28, (S)-3-(4-(4-((4-phenyl-5,6-dihydropyridine-1(2H)-yl)methyl)benzyloxy)phenyl)hex-4-ynoic acid]
- EC50 (GPR40; read-out: EC50): < 200 nM
- EC50 (GPR40; [3]): < 200 nM
- % AUC ([1]; oral dose 1 mg/kg): B (25.0-35.0%)
- % AUC ([1]; oral dose 3 mg/kg): B (25.0-35.0%)
- % AUC ([1]; oral dose 10 mg/kg): B (25.0-35.0%)
- % AUC ([2]; oral dose 0.3 mg/kg): C (under 25.0%)
- % AUC ([2]; oral dose 1 mg/kg): C (under 25.0%)
- % AUC ([2]; oral dose 3 mg/kg): C (under 25.0%)
- % AUC ([2]; oral dose 10 mg/kg): B (25.0-35.0%)

Compound: CC#CC(CC(=O)O)c1ccc(OCc2ccc(CN3CCc4ccccc4C3)cc2)cc1 (stereo not shown) [Example 12, 3-(4-(4-((3,4-dihydroisoquinoline-2(1H)-yl)methyl)benzyloxy)phenyl)hex-4-ynoic acid]
- EC50 (GPR40; read-out: EC50): < 200 nM
- EC50 (GPR40; [3]): < 200 nM

Compound: CC#C[C@@H](CC(=O)[O-])c1ccc(OCc2cccc(N3CCN(c4ccc(OC)cc4)CC3)c2)cc1.[Na+] [Example 47, sodium (S)-3-(4-(3-(4-(4-methoxyphenyl)piperazin-1-yl)benzyloxy)phenyl)hex-4-ynoate]
- EC50 (GPR40; read-out: EC50): 200 to 300 nM
- % AUC ([1]; oral dose 1 mg/kg): C (under 25.0%)
- % AUC ([1]; oral dose 3 mg/kg): C (under 25.0%)
- % AUC ([1]; oral dose 10 mg/kg): B (25.0-35.0%)
- % AUC ([2]; oral dose 0.3 mg/kg): C (under 25.0%)
- % AUC ([2]; oral dose 1 mg/kg): C (under 25.0%)
- % AUC ([2]; oral dose 3 mg/kg): B (25.0-35.0%)
- % AUC ([2]; oral dose 10 mg/kg): B (25.0-35.0%)

Compound: CC#C[C@@H](CC(=O)O)c1ccc(OCc2ccc(CN3CC=C(c4ccc(S(C)(=O)=O)cc4)CC3)cc2)cc1 [Example 32, (S)-3-(4-(4-((4-(4-(methylsulfonyl)phenyl)-5,6-dihydropyridine-1(2H)-yl)methyl)benzyloxy)phenyl)hex-4-ynoic acid]
- EC50 (GPR40; read-out: EC50): > 300 nM

Compound: CC#C[C@@H](CC(=O)[O-])c1ccc(OCc2ccc(CN3Cc4ccccc4C3)cc2)cc1.[Na+] [Example 37, sodium (S)-3-(4-(4-(isoindoline-2-ylmethyl)benzyloxy)phenyl)hex-4-ynoate]
- % AUC ([1]; oral dose 1 mg/kg): A (over 35.0%)
- hypoglycemic effect compared to Comparative Example 1 at 10 mg/kg ([1]; oral dose 1 mg/kg): higher hypoglycemic effect
- % AUC ([1]; oral dose 3 mg/kg): A (over 35.0%)
- % AUC ([1]; oral dose 10 mg/kg): A (over 35.0%)
- hypoglycemic effect compared with the non-treated group [1, 4]: more than 35.0%
- % AUC ([2]; oral dose 0.3 mg/kg): C (under 25.0%)
- % AUC ([2]; oral dose 1 mg/kg): B (25.0-35.0%)
- % AUC ([2]; oral dose 3 mg/kg): B (25.0-35.0%)
- % AUC ([2]; oral dose 10 mg/kg): A (over 35.0%)
- hypoglycemic effect by that of the non-treated group [2, 4]: more than 35.0%

Compound: CC#CC(CC(=O)O)c1ccc(OCc2ccc(CN3CCc4ccccc4C3)c(C3=CCCCC3)c2)cc1 (stereo not shown) [Example 13, 3-(4-(3-cyclohexenyl-4-((3,4-dihydroisoquinoline-2(1H)-yl)methyl)benzyloxy)phenyl)hex-4-ynoic acid]
- EC50 (GPR40; read-out: EC50): > 300 nM

Compound: CC#CC(CC(=O)O)c1ccc(OCc2ccc(CN3CCC(c4ccccc4)CC3)cc2)cc1 (stereo not shown) [Example 17, 3-(4-(4-((4-phenylpiperidine-1-yl)methyl)benzyloxy)phenyl)hex-4-ynoic acid]
- EC50 (GPR40; read-out: EC50): > 300 nM

Compound: CC#CC(CC(=O)O)c1ccc(OCc2ccc(CN3CCN(c4ccc(C(F)(F)F)cc4)CC3)cc2)cc1 (stereo not shown) [Example 19, 3-(4-(4-((4-(4-(trifluoromethyl)phenyl)piperazine-1-yl)methyl)benzyloxy)phenyl)hex-4-ynoic acid]
- EC50 (GPR40; read-out: EC50): > 300 nM

Compound: CC#C[C@@H](CC(=O)O)c1ccc(OCc2ccc(CN3CC=C(c4ccc(OCCCS(C)(=O)=O)cc4)CC3)cc2)cc1 [Example 33, (S)-3-(4-(4-((4-(4-(3-(methylsulfonyl)propoxy)phenyl)-5,6-dihydropyridine-1(2H)-yl)methyl)benzyloxy)phenyl)hex-4-ynoic acid]
- EC50 (GPR40; read-out: EC50): > 300 nM

Compound: CC#C[C@@H](CC(=O)O)c1ccc(OCc2ccc(CN3CCN(c4nc5ccccc5s4)CC3)cc2)cc1 [Example 43, (S)-3-(4-(4-((4-(benzo[d]thiazole-2-yl)piperazine-1-yl)methyl)benzyloxy)phenyl)hex-4-ynoic acid]
- EC50 (GPR40; read-out: EC50): > 300 nM

Compound: CC#C[C@@H](CC(=O)O)c1ccc(OCc2ccc(CN3CC=C(c4ccc(F)cc4)CC3)cc2)cc1 [Example 39, (S)-3-(4-(4-((4-(4-fluorophenyl)-5,6-dihydropyridine-1(2H)-yl)methyl)benzyloxy)phenyl)hex-4-ynoic acid]
- EC50 (GPR40; read-out: EC50): 200 to 300 nM

Compound: CC#CC(CC(=O)O)c1ccc(OCc2ccc(CN3CCN(c4ccccc4)CC3)cc2)cc1 (stereo not shown) [Example 15, 3-(4-(4-((4-phenylpiperazine-1-yl)methyl)benzyloxy)phenyl)hex-4-ynoic acid]
- EC50 (GPR40; read-out: EC50): > 300 nM

Compound: CC#C[C@@H](CC(=O)O)c1ccc(OCc2ccc(CCN3Cc4ccccc4C3)cc2)cc1 [Example 49, (S)-3-(4-(4-(2-(isoindoline-2-yl)ethyl)benzyloxy)phenyl)hex-4-ynoic acid]
- EC50 (GPR40; read-out: EC50): > 300 nM

Compound: CC#C[C@@H](CC(=O)O)c1ccc(OCc2ccc(CN3CCN(c4ccc(C(F)(F)F)cc4)CC3)cc2)cc1 [Example 22, (S)-3-(4-(4-((4-(4-(trifluoromethyl)phenyl)piperazine-1-yl)methyl)benzyloxy)phenyl)hex-4-ynoic acid]
- EC50 (GPR40; read-out: EC50): > 300 nM

Compound: CC#CC(CC(=O)O)c1ccc(OCc2ccc(CN3CC=C(c4ccccc4)CC3)cc2)cc1 (stereo not shown) [Example 14, 3-(4-(4-((4-phenyl-5,6-dihydropyridine-1(2H)-yl)methyl)benzyloxy)phenyl)hex-4-ynoic acid]
- EC50 (GPR40; read-out: EC50): < 200 nM
- EC50 (GPR40; [3]): < 200 nM
- % AUC ([1]; oral dose 1 mg/kg): C (under 25.0%)
- % AUC ([1]; oral dose 3 mg/kg): B (25.0-35.0%)
- % AUC ([1]; oral dose 10 mg/kg): B (25.0-35.0%)
- % AUC ([2]; oral dose 0.3 mg/kg): C (under 25.0%)
- % AUC ([2]; oral dose 1 mg/kg): C (under 25.0%)
- % AUC ([2]; oral dose 3 mg/kg): B (25.0-35.0%)
- % AUC ([2]; oral dose 10 mg/kg): B (25.0-35.0%)

Compound: CC#CC(CC(=O)O)c1ccc(OCc2cccc(C3=CCC(O)CC3)c2)cc1 (stereo not shown) [Example 5, 3-(4-(3-(4-hydroxycyclohex-1-enyl)benzyloxy)phenyl)hex-4-ynoic acid]
- EC50 (GPR40; read-out: EC50): 200 to 300 nM
- % AUC ([1]; oral dose 1 mg/kg): B (25.0-35.0%)
- % AUC ([1]; oral dose 3 mg/kg): B (25.0-35.0%)
- % AUC ([1]; oral dose 10 mg/kg): A (over 35.0%)
- % AUC ([2]; oral dose 0.3 mg/kg): C (under 25.0%)
- % AUC ([2]; oral dose 1 mg/kg): C (under 25.0%)
- % AUC ([2]; oral dose 3 mg/kg): C (under 25.0%)
- % AUC ([2]; oral dose 10 mg/kg): B (25.0-35.0%)

Compound: CC#CC(CC(=O)O)c1ccc(OCc2cccc(C3=CCC(O)CC3)c2)cc1 [Example 6, L-lysine 3-(4-(3-(4-hydroxycyclohex-1-enyl)benzyloxy)phenyl)hex-4-ynoate]
- EC50 (GPR40; read-out: EC50): 200 to 300 nM

Compound: CC#C[C@@H](CC(=O)O)c1ccc(OCc2ccc(CN3CCc4cc(OC)ccc4C3)cc2)cc1 [Example 25, (S)-3-(4-(4-((6-methoxy-3,4-dihydroisoquinoline-2(1H)-yl)methyl)benzyloxy)phenyl)hex-4-ynoic acid]
- EC50 (GPR40; read-out: EC50): > 300 nM
